For data set [1], the system named is FTC_1_Full (DNA, aptamer) GGAGGCTCTCGGGACGACGCTGAGTCGTTGGCAAGGTATTGAGAGAGTGTCGTCCCGATGCTGCAATCGTAA
The experiment in a line: ITC. The settings on record: Na+ (PBS), Mg2+ 2 mM, 25 °C, 20 µM aptamer in cell; for binding: 200 µM compound in syringe.

For data set [2], the system named is FTC_1_EAB (FTC_1_5'trunc19_3'trunc25), unlabelled (DNA, aptamer) CTGAGTCGTTGGCAAGGTATTGAGAGAG
The experiment in a line: ITC. The settings on record: Na+ (PBS), Mg2+ 2 mM, 25 °C, 20 µM aptamer in cell; for binding: 200 µM compound in syringe.

In data set [3] the test system is FTC_1_EAB, E-AB sensor (DNA, aptamer) CTGAGTCGTTGGCAAGGTATTGAGAGAG
The experiment in a line: electrochemical aptamer-based sensor (square wave voltammetry). Particulars: for binding: negligible signal 100 nM to 10 µM.

Data set [4] relates to FTC_1_EAB_Scramble (DNA, other) GATATGGGAGAACGCATTGCGTGGTATG
The experiment in a line: not stated (ITC series, Figure S7).

Data set [5] deals with FTC_5_Full (DNA, aptamer) GGAGGCTCTCGGGACGACGGCAAGTCGTTGGTAAGGTATTAATCTGGTGTCGTCCCGATGCTGCAATCGTAA
The experiment in a line: ITC. Particulars: Na+ (PBS), Mg2+ 2 mM, 25 °C, 20 µM aptamer in cell, 200 µM FTC in syringe.

The subject of data set [6] is FTC_2_Full (DNA, aptamer) GGAGGCTCTCGGGACGACCATGAGTCGTTGGTAAGGTATTAGGAAGCGGTCGTCCCGATGCTGCAATCGTAA
The experiment in a line: ITC. The settings on record: Na+ (PBS), Mg2+ 2 mM, 25 °C, 20 µM aptamer in cell, 200 µM FTC in syringe.

Data set [7] has as its system FTC_1_Fluor (FTC_1_5'trunc3_3'trunc14) (DNA, aptamer) GGCTCTCGGGACGACGCTGAGTCGTTGGCAAGGTATTGAGAGAGTGTCGTCCCGA
The experiment in a line: fluorescence, quencher strand displacement. The settings on record: Na+ (PBS), Mg2+ about 1 mM; 50% human plasma; Q-Cap_1 (3'-BHQ2) displaced; 100 nM aptamer, 150 nM Q-Cap_1; apparent.

Data set [8] concerns the target bovine serum albumin (BSA) (UniProt P02769 25-607). The experiment in a line: ITC; heat change at mole ratios <0.1; BSA as ligand; ITC: PBS + 2 mM MgCl2 (SELEX buffer pH 7.2); general ITC protocol 20 uM aptamer in cell, 200 uM target in syringe; temperature not given. The settings on record: protein: commercial; stem-loop, stem S1 13 bp.

A word on the Kd: it is the equilibrium constant for the complex coming apart. As usually defined, the EC50 is the concentration giving half of the maximal effect.

bovine serum albumin (BSA), sequence (P02769 25-607): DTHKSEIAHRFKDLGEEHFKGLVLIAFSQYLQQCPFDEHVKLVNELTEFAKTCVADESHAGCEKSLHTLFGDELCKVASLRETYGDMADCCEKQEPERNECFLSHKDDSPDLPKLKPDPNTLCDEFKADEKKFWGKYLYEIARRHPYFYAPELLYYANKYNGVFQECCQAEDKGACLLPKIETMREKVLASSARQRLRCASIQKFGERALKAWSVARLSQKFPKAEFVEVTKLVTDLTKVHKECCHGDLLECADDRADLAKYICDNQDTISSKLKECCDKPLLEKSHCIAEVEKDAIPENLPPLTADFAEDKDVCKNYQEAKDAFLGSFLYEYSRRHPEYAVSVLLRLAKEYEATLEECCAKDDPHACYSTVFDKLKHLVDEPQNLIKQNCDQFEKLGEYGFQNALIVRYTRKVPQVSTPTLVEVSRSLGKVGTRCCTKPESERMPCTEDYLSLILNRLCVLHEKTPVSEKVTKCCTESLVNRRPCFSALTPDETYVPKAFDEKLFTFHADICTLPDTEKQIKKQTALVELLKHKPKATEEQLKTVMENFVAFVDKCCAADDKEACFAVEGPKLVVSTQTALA

For `Nc1cc[nH]c(=O)n1`, the binding result in data set [1] and in data set [2] was “no” each time.
As for `Nc1ccn([C@@H]2CS[C@H](CO)O2)c(=O)n1`, the binding entry in data set [3] (binding above 10 µM, gain 50% lower than FTC) is reported as “weak”.
For the molecule `Nc1ccn([C@@H]2O[C@H](CO)[C@@H](O)[C@H]2O)c(=O)n1`, the binding entry in data set [1] and in data set [2] was “no” throughout.
As for `Nc1nc(=O)n([C@@H]2CS[C@H](CO)O2)cc1F`, in data set [1] (200 µM FTC in syringe), the dissociation constant amounted to 150 ± 40 nM. In addition, the binding entry is “no” in data set [4], “yes” in data set [5] and “yes” in data set [6]. In data set [2] (200 µM FTC in syringe), this molecule had a Kd of 10.9 ± 0.3 µM. Further, the 50% effective concentration (EC50) in data set [3] (Na+ (PBS), phosphate-buffered saline, gold electrode, Hill coefficient 1, apparent) came to 10.4 ± 0.6 µM; in data set [7] it was 3.536 ± 0.069 µM.
Regarding `Nc1nc(=O)n([C@@H]2CS[C@H](COP(=O)(O)OP(=O)(O)OP(=O)(O)O)O2)cc1F`, the binding result in data set [1] was “no”; in data set [3] (minimal binding at saturation), “weak”.
For the molecule `Nc1nc(=O)n([C@@H]2O[C@H](CO)[C@@H](O)[C@H]2O)cc1F`, the binding result in data set [1] and in data set [2] was “no” each time.

B1: FTC_1 (taken as FTC_1_Full) (structured_DNA)
DNA: GGAGGCTCTCGGGACGACGCTGAGTCGTTGGCAAGGTATTGAGAGAGTGTCGTCCCGATGCTGCAATCGTAA
For the molecule B1, the binding result in data set [8] is “binds”.

These data come from publication PMC12478587.
